Five compounds from BindingDB's records for doi:10.1021/acsmedchemlett.0c00047 (Centre of Experimental Medicine, 2020) can be followed below.

The nature of this assay: Inhibition of SERCA1 in rat INS-1E cells assessed as reduction in cell viability incubated for 24 hrs by MTT assay.

Each structure is given as a SMILES string.

One may read the IC50 as the concentration at which inhibition is half-maximal. Turning to `Cc1cc2c3c(c1)-c1c(O)cc(-c4cc5ccc(O)cc5o4)cc1O[C@@]3(c1ccc(O)cc1O)Oc1cc(O)ccc1-2`, the IC50 turned out to be 18.2 µM.

For the compound `COc1cc(O)c([C@@H]2CC(=O)c3c(O)cc(O)cc3O2)cc1C/C=C(\C)CCC=C(C)C`, the IC50 stood at 64.8 µM.

As for `CC1(C)Oc2cc3oc(-c4cc(O)cc(O)c4)cc3cc2CC1O` (stereo not given) [Moracin P], the IC50 was found to be 109 µM.

Regarding `CC(C)=CCc1c(-c2ccc(O)cc2O)oc2c3c(cc(O)c2c1=O)OC(C)(C)C=C3` [Morusin, 3], the IC50 stood at 28.7 µM.

As to `CC(C)(O)C1Cc2cc3cc(-c4cc(O)cc(O)c4)oc3cc2O1` (stereo not given) [moracin O], the half-inhibitory concentration (IC50) was 111 µM.
